Reference: PubChem BioAssay AID1919013 (Molecular Pharmacology Branch, DTP, NCI, 2023)
Where “and” joins values, the source holds several entries; their conditions need not be identical. Equal entries are not always repeated. Values belong to the compound of their own block, whether it stands above or below them.

Tested on: LG0703-F498-PDC complex spheroid growth
Assay: Anticancer human tumor LG0703-F498-PDC patient-derived lung adenocarcinoma cell line growth inhibition [AhR]
Details: for viability, T/C: stronger effect = lower value
Outline: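 Agents were dosed in half-log steps down from roughly clinical Cmax, or from 10 microM where Cmax was unknown, alone and with AhR antagonists. Read-out: percent test/control growth of tumor spheroids containing HUVEC and MSC stromal cells.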

[1] = curve of first compound, second compound 0.1 µM
[2] = curve of first compound, second compound 0.316 µM
[3] = curve of first compound, second compound 1 µM
[4] = curve of first compound, second compound 3.16 µM
[5] = curve of first compound, second compound 10 µM
[6] = second compound 0.1 µM, first compound 0.0316 µM
[7] = second compound 0.1 µM, first compound 0.1 µM
[8] = second compound 0.316 µM, first compound 0.0316 µM
[9] = second compound 0.316 µM, first compound 0.1 µM
[10] = second compound 1 µM, first compound 0.0316 µM
[11] = second compound 1 µM, first compound 0.1 µM
[12] = second compound 3.16 µM, first compound 0.0316 µM
[13] = second compound 3.16 µM, first compound 0.1 µM
[14] = second compound 10 µM, first compound 0.0316 µM
[15] = second compound 10 µM, first compound 0.1 µM
[16] = second compound 0.1 µM, first compound 0.316 µM
[17] = second compound 0.1 µM, first compound 1 µM
[18] = second compound 0.1 µM, first compound 3.16 µM
[19] = second compound 0.1 µM, first compound 10 µM
[20] = second compound 0.316 µM, first compound 0.316 µM
[21] = second compound 0.316 µM, first compound 1 µM
[22] = second compound 0.316 µM, first compound 3.16 µM
[23] = second compound 0.316 µM, first compound 10 µM
[24] = second compound 1 µM, first compound 0.316 µM
[25] = second compound 1 µM, first compound 1 µM
[26] = second compound 1 µM, first compound 3.16 µM
[27] = second compound 1 µM, first compound 10 µM
[28] = second compound 3.16 µM, first compound 0.316 µM
[29] = second compound 3.16 µM, first compound 1 µM
[30] = second compound 3.16 µM, first compound 3.16 µM
[31] = second compound 3.16 µM, first compound 10 µM
[32] = second compound 10 µM, first compound 0.316 µM
[33] = second compound 10 µM, first compound 1 µM
[34] = second compound 10 µM, first compound 3.16 µM
[35] = second compound 10 µM, first compound 10 µM
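Further: luminescence taken as a proxy for viable cell amount.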
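Wherever viability, T/C is given: percent of DMSO vehicle control where 100% means growth equal to vehicle.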

Structure (SMILES): CC[C@@]1(O)C(=O)OCc2c1cc1n(c2=O)Cc2cc3c(CN(C)C)c(O)ccc3nc2-1 + Cc1ccccc1N=Nc1ccc(NC(=O)c2ccnn2C)c(C)c1
IC50 [1]: > 0.1 µM
IC50 [2]: > 0.1 µM
IC50 [3]: > 0.1 µM
IC50 [4]: > 0.1 µM
IC50 [5]: > 0.1 µM
viability, T/C (second compound 0.1 µM, first compound 0.000316 µM): 94.9%
viability, T/C (second compound 0.1 µM, first compound 0.001 µM): 116%
viability, T/C (second compound 0.1 µM, first compound 0.00316 µM): 92.2%
viability, T/C (second compound 0.1 µM, first compound 0.01 µM): 96.2%
viability, T/C [6]: 88.5%
viability, T/C [7]: 60.3%
viability, T/C (second compound 0.316 µM, first compound 0.000316 µM): 97.8%
viability, T/C (second compound 0.316 µM, first compound 0.001 µM): 93.6%
viability, T/C (second compound 0.316 µM, first compound 0.00316 µM): 78.5%
viability, T/C (second compound 0.316 µM, first compound 0.01 µM): 93.6%
viability, T/C [8]: 77.2%
viability, T/C [9]: 66.6%
viability, T/C (second compound 1 µM, first compound 0.000316 µM): 93.9%
viability, T/C (second compound 1 µM, first compound 0.001 µM): 82.2%
viability, T/C (second compound 1 µM, first compound 0.00316 µM): 83.5%
viability, T/C (second compound 1 µM, first compound 0.01 µM): 82.2%
viability, T/C [10]: 78.9%
viability, T/C [11]: 61.2%
viability, T/C (second compound 3.16 µM, first compound 0.000316 µM): 84.4%
viability, T/C (second compound 3.16 µM, first compound 0.001 µM): 83.9%
viability, T/C (second compound 3.16 µM, first compound 0.00316 µM): 86.1%
viability, T/C (second compound 3.16 µM, first compound 0.01 µM): 72.6%
viability, T/C [12]: 61.1%
viability, T/C [13]: 51.1%
viability, T/C (second compound 10 µM, first compound 0.000316 µM): 72.9%
viability, T/C (second compound 10 µM, first compound 0.001 µM): 80.5%
viability, T/C (second compound 10 µM, first compound 0.00316 µM): 78.7%
viability, T/C (second compound 10 µM, first compound 0.01 µM): 63.9%
viability, T/C [14]: 57.1%
viability, T/C [15]: 60.2%

Structure (SMILES): O=C(c1cc(Cc2n[nH]c(=O)c3ccccc23)ccc1F)N1CCN(C(=O)C2CC2)CC1
viability, T/C (compound 0.0316 µM): 98.7% and 113% and 108%
viability, T/C (compound 0.1 µM): 106% and 89.2% and 102%
viability, T/C (compound 0.316 µM): 103% and 91.6% and 85.8%
viability, T/C (compound 1 µM): 99.9% and 95.1% and 114%
viability, T/C (compound 3.16 µM): 88.3% and 110% and 109%
viability, T/C (compound 10 µM): 74.2% and 90.4% and 94.5%
IC50 (curve of compound): > 10 µM

Structure (SMILES): CCN(c1cc(-c2ccc(CN3CCOCC3)cc2)cc(C(=O)NCc2c(C)cc(C)[nH]c2=O)c1C)C1CCOCC1 + Cc1ccccc1N=Nc1ccc(NC(=O)c2ccnn2C)c(C)c1
IC50 [1]: > 3 µM
IC50 [2]: > 3 µM
IC50 [3]: > 3 µM
IC50 [4]: > 3 µM
IC50 [5]: > 3 µM
viability, T/C (second compound 0.1 µM, first compound 0.00949 µM): 97.8%
viability, T/C (second compound 0.1 µM, first compound 0.03 µM): 104%
viability, T/C (second compound 0.1 µM, first compound 0.0949 µM): 104%
viability, T/C (second compound 0.1 µM, first compound 0.3 µM): 107%
viability, T/C (second compound 0.1 µM, first compound 0.949 µM): 112%
viability, T/C (second compound 0.1 µM, first compound 3 µM): 118%
viability, T/C (second compound 0.316 µM, first compound 0.00949 µM): 94.3%
viability, T/C (second compound 0.316 µM, first compound 0.03 µM): 106%
viability, T/C (second compound 0.316 µM, first compound 0.0949 µM): 95%
viability, T/C (second compound 0.316 µM, first compound 0.3 µM): 100%
viability, T/C (second compound 0.316 µM, first compound 0.949 µM): 102%
viability, T/C (second compound 0.316 µM, first compound 3 µM): 106%
viability, T/C (second compound 1 µM, first compound 0.00949 µM): 97.7%
viability, T/C (second compound 1 µM, first compound 0.03 µM): 93.2%
viability, T/C (second compound 1 µM, first compound 0.0949 µM): 115%
viability, T/C (second compound 1 µM, first compound 0.3 µM): 92%
viability, T/C (second compound 1 µM, first compound 0.949 µM): 97.3%
viability, T/C (second compound 1 µM, first compound 3 µM): 99.8%
viability, T/C (second compound 3.16 µM, first compound 0.00949 µM): 95.9%
viability, T/C (second compound 3.16 µM, first compound 0.03 µM): 99.9%
viability, T/C (second compound 3.16 µM, first compound 0.0949 µM): 102%
viability, T/C (second compound 3.16 µM, first compound 0.3 µM): 94.2%
viability, T/C (second compound 3.16 µM, first compound 0.949 µM): 87.1%
viability, T/C (second compound 3.16 µM, first compound 3 µM): 101%
viability, T/C (second compound 10 µM, first compound 0.00949 µM): 81.9%
viability, T/C (second compound 10 µM, first compound 0.03 µM): 86.1%
viability, T/C (second compound 10 µM, first compound 0.0949 µM): 96.4%
viability, T/C (second compound 10 µM, first compound 0.3 µM): 86.1%
viability, T/C (second compound 10 µM, first compound 0.949 µM): 82.2%
viability, T/C (second compound 10 µM, first compound 3 µM): 98.5%

Structure (SMILES): NS(=O)(=O)OCC1CC(n2ccc3c(NC4CCc5ccccc54)ncnc32)CC1O (configuration not stated) + Cc1ccccc1N=Nc1ccc(NC(=O)c2ccnn2C)c(C)c1
IC50 [1]: 7.52 µM
IC50 [2]: 6.76 µM
IC50 [3]: 3.06 µM
IC50 [4]: 1.08 µM
IC50 [5]: 1.31 µM
viability, T/C [6]: 100%
viability, T/C [7]: 94.1%
viability, T/C [16]: 97.9%
viability, T/C [17]: 90.8%
viability, T/C [18]: 64.4%
viability, T/C [19]: 45.2%
viability, T/C [8]: 102%
viability, T/C [9]: 99.8%
viability, T/C [20]: 103%
viability, T/C [21]: 81.7%
viability, T/C [22]: 68.5%
viability, T/C [23]: 41%
viability, T/C [10]: 96%
viability, T/C [11]: 102%
viability, T/C [24]: 99%
viability, T/C [25]: 74.4%
viability, T/C [26]: 51.5%
viability, T/C [27]: 38.4%
viability, T/C [12]: 93.2%
viability, T/C [13]: 99.6%
viability, T/C [28]: 67%
viability, T/C [29]: 55.6%
viability, T/C [30]: 42.1%
viability, T/C [31]: 39.6%
viability, T/C [14]: 100%
viability, T/C [15]: 82.7%
viability, T/C [32]: 63.7%
viability, T/C [33]: 54.5%
viability, T/C [34]: 41.4%
viability, T/C [35]: 32%

More lines, main results first:

IC50 [1]: < 0.0316 µM
IC50 [2]: < 0.0316 µM
IC50 [3]: < 0.0316 µM
IC50 [4]: < 0.0316 µM
IC50 [5]: < 0.0316 µM
Structure (SMILES): Nc1ccn(C2OC(CO)C(O)C2(F)F)c(=O)n1 (configuration not stated) + CC(CO)NC(=O)c1cc(-c2ccc(Cl)cc2)nn(-c2cnn(C)c2)c1=O
viability, T/C [6]: 43.6%
viability, T/C [7]: 43.4%
viability, T/C [16]: 39.1%
viability, T/C [17]: 38.8%
viability, T/C [18]: 35.7%
viability, T/C [19]: 26.6%
viability, T/C [8]: 43.3%
viability, T/C [9]: 41.7%
viability, T/C [20]: 41.1%
viability, T/C [21]: 38.3%
viability, T/C [22]: 28.4%
viability, T/C [23]: 27.3%
viability, T/C [10]: 46.7%
viability, T/C [11]: 47.5%
viability, T/C [24]: 39.9%
viability, T/C [25]: 37.9%
viability, T/C [26]: 31%
viability, T/C [27]: 27.1%
viability, T/C [12]: 42.8%
viability, T/C [13]: 41.9%
viability, T/C [28]: 41.9%
viability, T/C [29]: 39.2%
viability, T/C [30]: 29.2%
viability, T/C [31]: 23.9%
viability, T/C [14]: 40%
viability, T/C [15]: 40.5%
viability, T/C [32]: 45%
viability, T/C [33]: 34.5%
viability, T/C [34]: 27.2%
viability, T/C [35]: 23.7%

IC50 [1]: 3.65 µM
IC50 [2]: 4.79 µM
IC50 [3]: 5.26 µM
IC50 [4]: 3.18 µM
IC50 [5]: 2.91 µM
Structure (SMILES): COc1ccc([C@@H](O)c2cc(-c3ncnc4cc(N5CCOCC5)ccc34)c(F)cc2Cl)nn1 + CC(CO)NC(=O)c1cc(-c2ccc(Cl)cc2)nn(-c2cnn(C)c2)c1=O
viability, T/C [6]: 88.9%
viability, T/C [7]: 89.9%
viability, T/C [16]: 93.5%
viability, T/C [17]: 76%
viability, T/C [18]: 53.5%
viability, T/C [19]: 31.7%
viability, T/C [8]: 94.2%
viability, T/C [9]: 95.8%
viability, T/C [20]: 81%
viability, T/C [21]: 74.5%
viability, T/C [22]: 64.5%
viability, T/C [23]: 30.5%
viability, T/C [10]: 97.4%
viability, T/C [11]: 95.1%
viability, T/C [24]: 88.1%
viability, T/C [25]: 83.8%
viability, T/C [26]: 61.6%
viability, T/C [27]: 34.4%
viability, T/C [12]: 93.1%
viability, T/C [13]: 86.4%
viability, T/C [28]: 88.1%
viability, T/C [29]: 68.3%
viability, T/C [30]: 51.2%
viability, T/C [31]: 32.1%
viability, T/C [14]: 78.5%
viability, T/C [15]: 88.3%
viability, T/C [32]: 77.1%
viability, T/C [33]: 69.5%
viability, T/C [34]: 48.5%
viability, T/C [35]: 33.4%
